Experimental data from ChEMBL document CHEMBL1139178, “Probing acid replacements of thiophene PTP1B inhibitors” (Bioorg Med Chem Lett, 2007).

Target: T1, Tyrosine-protein phosphatase non-receptor type 1 (Homo sapiens, UniProt P18031)
T1 sequence (P18031 whole entry): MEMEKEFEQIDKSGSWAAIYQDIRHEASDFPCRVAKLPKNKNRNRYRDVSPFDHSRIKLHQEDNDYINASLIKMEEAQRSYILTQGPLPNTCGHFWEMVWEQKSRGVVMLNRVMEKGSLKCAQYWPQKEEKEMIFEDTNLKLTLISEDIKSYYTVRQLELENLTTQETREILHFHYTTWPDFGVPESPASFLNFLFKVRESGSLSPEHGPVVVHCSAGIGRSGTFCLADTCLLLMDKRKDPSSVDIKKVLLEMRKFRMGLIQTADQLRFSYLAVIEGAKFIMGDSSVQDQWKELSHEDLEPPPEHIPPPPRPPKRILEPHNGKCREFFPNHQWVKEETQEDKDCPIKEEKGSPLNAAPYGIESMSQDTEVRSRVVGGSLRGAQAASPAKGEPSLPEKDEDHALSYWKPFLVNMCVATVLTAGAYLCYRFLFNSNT
Test: Inhibition of PTP1B assessed as pNPP hydrolysis
Settings: not given

Compound | Ki | IC50
O=C(COc1c(C(=O)O)sc(Br)c1Br)NO | – | > 2500 µM
O=C(O)c1sc(Br)c(Br)c1OCC(F)(F)F | – | > 2500 µM
O=C(O)COc1csc(Br)c1Br | – | > 2500 µM
O=C(O)COc1c(C(=O)N2CCOCC2)sc(Br)c1Br | – | 210 µM
O=C(O)c1sc(Br)c(Br)c1OCCO | – | > 2500 µM
O=C(O)c1sc(Br)c(Br)c1OCC(O)CO (stereo not drawn) | – | > 2500 µM
C=CCOc1c(C(=O)O)sc(Br)c1Br | – | > 2500 µM
O=C(O)COc1c(CO)sc(Br)c1Br | – | > 2500 µM
Cc1c(N2CC(=O)NS2(=O)=O)csc1-c1cccc(NC2CCN(S(=O)(=O)Cc3ccccc3)CC2)c1 | 4.3 µM | –
Cc1c(N2CC(=O)NS2(=O)=O)csc1-c1cccc(NC2CCCCC2)c1 | 12 µM | –
NNC(=O)c1sc(Br)c(Br)c1OCC(=O)O | – | > 2500 µM
O=C(O)COc1c(C(=O)CO)sc(Br)c1Br | 210 µM | 330 µM
C=CCc1sc(Br)c(Br)c1OCC(=O)O | – | 165 µM
N#CCOc1c(C(=O)O)sc(Br)c1Br | – | > 2500 µM

More lines, now with the values ahead:

Ki | IC50 | Compound
4.6 µM | – | CC(=O)N(c1cccc(-c2sc(-c3nn[nH]n3)c(OCC(=O)O)c2Br)c1)C1CC(C)(C)CC(C)(C)C1
18 µM | – | O=C(O)COc1c(-c2nnn[nH]2)sc(-c2cccc(NC3CCCCC3)c2)c1Br
– | > 2500 µM | Cc1nc(-c2sc(Br)c(Br)c2OCC(=O)O)no1
– | > 2500 µM | CC(=O)Nc1sc(Br)c(Br)c1OCC(=O)O
120 µM | – | O=C(O)COc1cc(-c2ccccc2)sc1-c1nn[nH]n1
– | > 2500 µM | O=C(O)COc1c(C(=O)Nc2nccs2)sc(Br)c1Br
270 µM | 430 µM | O=C(O)COc1c(-c2nnn[nH]2)sc(Br)c1Br
170 µM | – | Cc1c(-c2ccccc2)sc(-c2nnn[nH]2)c1OCC(=O)O
– | 29 µM | O=C(O)COc1c(C(=O)O)sc(Br)c1Br
– | > 2500 µM | N#Cc1sc(Br)c(Br)c1OCC(=O)O
– | > 2500 µM | O=C(O)c1sc(Br)c(Br)c1OCc1nn[nH]n1
– | > 2500 µM | CCc1nc(-c2sc(Br)c(Br)c2OCC(=O)O)no1
– | > 2500 µM | NC(=O)c1sc(Br)c(Br)c1OCC(=O)O
1.6 µM | – | CC1(C)CC(Nc2cccc(-c3sc(-c4nn[nH]n4)c(OCC(=O)O)c3Br)c2)CC(C)(C)C1
– | 29 µM | O=C1CN(c2csc(-c3ccccc3)c2Br)S(=O)(=O)N1
1.3 µM | – | Cc1c(-c2cccc(OC3CCN(S(=O)(=O)Cc4ccccc4)CC3)c2)sc(-c2nn[nH]n2)c1OCC(=O)O
20 µM | – | O=C(O)COc1c(-c2nnn[nH]2)sc(-c2ccccc2)c1Br
– | > 2500 µM | O=C(O)COc1c(C(=O)Nc2ccn[nH]2)sc(Br)c1Br
– | > 2500 µM | CC(C)c1nc(-c2sc(Br)c(Br)c2OCC(=O)O)no1

System: not listed separately
Test: Permeability of compound by PAMPA
Type: ADME
Settings: read-out: permeability

Papp | Compound
0.19 ×10⁻⁶ cm/s | Cc1c(N2CC(=O)NS2(=O)=O)csc1-c1cccc(NC2CCN(S(=O)(=O)Cc3ccccc3)CC2)c1
3.54 ×10⁻⁶ cm/s | O=C1CN(c2c(Cl)sc(-c3ccccc3)c2Cl)S(=O)(=O)N1
0.22 ×10⁻⁶ cm/s | Cc1c(-c2cccc(OC3CCN(S(=O)(=O)Cc4ccccc4)CC3)c2)sc(-c2nn[nH]n2)c1OCC(=O)O
